Data on five compounds can be found in patent US9957231B2, “Iodine(II)-mediated radiofluorination” (The General Hospital Corporation, priority 2014, dated 2018).

The nature of data set [1]: Stability of biphenyl spiroiodine(III) ylide precursors. The data set is classed as physicochemical. The text has this: Experiments with derivatives of Meldrum's acid 8a and barbituric acid 9a, based on a challenging electron-neutral biphenyl substrate, provided radiochemical conversions of 47% and 53%, respectively. Analogs incorporating substituents on the nitrogen atoms of […] were relatively unstable at room temperature, and analogues with alkyl groups other than methyl on the quaternary carbon of diesters 9b-d were not crystalline. […] Cyclobutyl 10b and cyclopentyl 10c groups provided increased conversions, 70% and 85%, respectively.

Data set [2] in a line: Sterility testing in TSB and FTM media. The note with it: TSB 20-25° C., FTM 30-35° C., 14 days. The protocol:
Sterility testing was performed post-release and must be started within 30 hours from end of synthesis. [^18F]FPEB sample was inoculated into Trypitcase Soy Broth (TSB) and Fluid Thioglycollate Medium (FTM) media tubes. TSB tubes were incubated at 20-25° C. and FTM tubes were incubated at 30-35° C. for 14 days and must be free of culture growth after 14 days.

Data set [3] is described as follows: pH assay of the [^18F]FPEB dose with pH indicator paper. The data set is classed as physicochemical. The note with it: formulated dose, n = 3. The protocol:
The pH of [^18F]FPEB was determined by applying a few drops of the dose to pH indicator paper. Match the reference color and the pH value conformed to our release specifications (pH=4.5-8.5).

Turning to `O=C1OC2(CCCCC2)OC(=O)C1=Ic1ccc(-c2ccccc2)cc1` [Example 10a, 1,5-dioxaspiro[5.5]undecane-2,4-dion-[1,1′biphenyl-4-iodonium]ylide], the stability of precursor result in data set [1] (room temperature / solid state) was “stable crystalline solid”.
Regarding `O=C1OC2(CCCC2)OC(=O)C1=Ic1ccc(-c2ccccc2)cc1` [Example 10c, 6,10-dioxaspiro[4.5]decane-7,9-dion-[1,1′-biphenyl-4-iodonium]ylide], the “thermal stability under the radiolabelling conditions” value in data set [1] (DMF, 120° C., 10 min) is on record as “good thermal stability”.
As a reminder, the melting point is the temperature of the solid-liquid transition. For `N#Cc1cc(C#Cc2ccccn2)cc(I=C2C(=O)OC3(CCCC3)OC2=O)c1` [Example 31, 3-((7,9-dioxo-6,10-dioxaspiro[4.5]decan-8-ylidene)-1.3-iodanyl)-5-(pyridin-2-ylethynyl)benzonitrile], the melting point is 145 to 150 °C (dec.).
In turn, `NC(=O)c1cc(F)cc(C#Cc2ccccn2)c1` [Example 32, 3-fluoro-5-(pyridin-2-ylethynyl)benzamide] yielded a melting point of 175 to 176 °C.
As to `N#Cc1cc([18F])cc(C#Cc2ccccn2)c1` [[^18F]FPEB, [^18F]3-fluoro-5-(pyridin-2-ylethynyl)benzonitrile], the “Sterility Testing” value in data set [2] is given as “No evidence of growth at 14 days post”. Further, the “pH Assay” value in data set [3] is 5-5.5.
